ChEMBL document CHEMBL1201862, “PubChem BioAssay data set” (2004)
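A five-concentration, 48-hour dose response in 96-well plates underlies each endpoint, interpolated linearly between surrounding concentrations. Here, GI50 denotes the concentration required for 50% inhibition of growth.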 Activity calls are given as the source filed them. Cut-off read from the data, not from the text of the source: active = GI50 up to about 1.1 µM and inactive = higher.

Assays:
Experiment in all cases: NCI anticancer screen, dose series, 48 h
A549 = tested on: A549
ACHN = tested on: ACHN
COLO 205 = tested on: COLO 205
DU-145 = tested on: DU-145
HCC 2998 = tested on: HCC 2998
HCT-116 = tested on: HCT-116
HCT-15 = tested on: HCT-15
K562 = tested on: K562
MDA-MB-435 = tested on: MDA-MB-435
MDA-N = tested on: MDA-N
NCI-H226 = tested on: NCI-H226
NCI-H522 = tested on: NCI-H522
OVCAR-4 = tested on: OVCAR-4
OVCAR-5 = tested on: OVCAR-5
PC-3 = tested on: PC-3
SK-MEL-5 = tested on: SK-MEL-5
SN12C = tested on: SN12C
UO-31 = tested on: UO-31
HL-60 = tested on: HL-60
SR = tested on: SR

| Compound | GI50 (A549) | GI50 (ACHN) | GI50 (COLO 205) | GI50 (DU-145) | GI50 (HCC 2998) | GI50 (HCT-116) | GI50 (HCT-15) [µM] | GI50 (K562) | GI50 (MDA-MB-435) | GI50 (MDA-N) | GI50 (NCI-H226) | GI50 (NCI-H522) | GI50 (OVCAR-4) | GI50 (OVCAR-5) | GI50 (PC-3) | GI50 (SK-MEL-5) | GI50 (SN12C) | GI50 (UO-31) | GI50 (HL-60) | GI50 (SR) |
| --- | --- | --- | --- | --- | --- | --- | --- | --- | --- | --- | --- | --- | --- | --- | --- | --- | --- | --- | --- | --- |
| O=C(O)CC(Cc1ccccc1)C(=O)O (stereo not drawn) | > 100 µM (inactive) | > 100 µM (inactive) | > 100 µM (inactive) | > 100 µM (inactive) | > 100 µM (inactive) | > 100 µM (inactive) | > 100 | > 100 µM (inactive) | > 100 µM (inactive) | 56.5 µM (inactive) | 50.4 µM (inactive) | > 100 µM (inactive) | > 100 µM (inactive) | > 100 µM (inactive) | > 100 µM (inactive) | > 100 µM (inactive) | 37.2 µM (inactive) | > 100 µM (inactive) | – | – |
| O=C(O)CC1OCC=C2CN3CCC45C6=CC(=O)C(O)=C([N+](=O)[O-])C6=NC4C1C2CC35 (stereo not drawn) | > 100 µM (inactive) | > 100 µM (inactive) | > 100 µM (inactive) | > 100 µM (inactive) | > 100 µM (inactive) | > 100 µM (inactive) | > 100 | 92.3 µM (inactive) | 17.2 µM (inactive) | 44.7 µM (inactive) | > 100 µM (inactive) | > 100 µM (inactive) | > 100 µM (inactive) | > 100 µM (inactive) | > 100 µM (inactive) | > 100 µM (inactive) | > 100 µM (inactive) | > 100 µM (inactive) | 52 µM (inactive) | – |
| COc1ccc(CC(C)NCC(O)c2ccc(O)c(NC=O)c2)cc1 (stereo not drawn) | > 100 µM (inactive) | > 100 µM (inactive) | > 100 µM (inactive) | > 100 µM (inactive) | – | 43.4 µM (inactive) | > 100 | > 100 µM (inactive) | > 100 µM (inactive) | – | > 100 µM (inactive) | > 100 µM (inactive) | > 100 µM (inactive) | > 100 µM (inactive) | > 100 µM (inactive) | > 100 µM (inactive) | 20.1 µM (inactive) | > 100 µM (inactive) | – | > 100 µM (inactive) |
| Clc1ccc(Cc2nc3cc4ccccc4cc3[nH]2)cc1Cl | 16.4 µM (inactive) | 30.8 µM (inactive) | 18.5 µM (inactive) | 20.7 µM (inactive) | 18.5 µM (inactive) | 20.1 µM (inactive) | 15.2 | 6.15 µM (inactive) | 15 µM (inactive) | – | 25.2 µM (inactive) | 12.7 µM (inactive) | 13 µM (inactive) | 32.5 µM (inactive) | 13 µM (inactive) | 3.93 µM (inactive) | 24 µM (inactive) | 14 µM (inactive) | 16.3 µM (inactive) | 7.6 µM (inactive) |
| c1cc2c(cc1[C@@H]1OC[C@@H]3[C@H]1CO[C@H]3c1ccc3c(c1)OCO3)OCO2 | 62.2 µM (inactive) | > 100 µM (inactive) | > 100 µM (inactive) | > 100 µM (inactive) | > 100 µM (inactive) | 26.9 µM (inactive) | > 100 | 46.8 µM (inactive) | 54.2 µM (inactive) | 80.9 µM (inactive) | > 100 µM (inactive) | > 100 µM (inactive) | > 100 µM (inactive) | > 100 µM (inactive) | 51.4 µM (inactive) | 16 µM (inactive) | > 100 µM (inactive) | 65.8 µM (inactive) | 44 µM (inactive) | – |
| COc1ccc(C2SCC(=O)N2c2ccc(-n3c(-c4ccccc4)nc4ccccc4c3=O)cc2)cc1 (stereo not drawn) | > 100 µM (inactive) | > 100 µM (inactive) | > 100 µM (inactive) | > 100 µM (inactive) | 60.3 µM (inactive) | > 100 µM (inactive) | 48.5 | > 100 µM (inactive) | > 100 µM (inactive) | – | > 100 µM (inactive) | 36.4 µM (inactive) | > 100 µM (inactive) | > 100 µM (inactive) | 42.1 µM (inactive) | > 100 µM (inactive) | > 100 µM (inactive) | 25.3 µM (inactive) | > 100 µM (inactive) | 45 µM (inactive) |
| [N-]=[N+]=NC1=C(N=[N+]=[N-])c2cccc3cccc(c23)C1=O | > 100 µM (inactive) | > 100 µM (inactive) | > 100 µM (inactive) | – | > 100 µM (inactive) | > 100 µM (inactive) | > 100 | > 100 µM (inactive) | > 100 µM (inactive) | < 0.01 µM (active) | > 100 µM (inactive) | > 100 µM (inactive) | > 100 µM (inactive) | > 100 µM (inactive) | > 100 µM (inactive) | > 100 µM (inactive) | > 100 µM (inactive) | > 100 µM (inactive) | – | 88.3 µM (inactive) |
| O=C(O)c1ccc(-c2nc3cc(Cl)ccc3[nH]2)cc1 | > 100 µM (inactive) | – | > 100 µM (inactive) | – | > 100 µM (inactive) | – | > 100 | > 100 µM (inactive) | – | – | > 100 µM (inactive) | > 100 µM (inactive) | – | – | > 100 µM (inactive) | > 100 µM (inactive) | > 100 µM (inactive) | > 100 µM (inactive) | > 100 µM (inactive) | > 100 µM (inactive) |
| CN(Cc1cnc2nc(N)nc(N)c2n1)c1ccc(C(=O)NC2CCCCC2)cc1 | – | 23.3 µM (inactive) | 31.3 µM (inactive) | 37.6 µM (inactive) | – | 6.65 µM (inactive) | 20.8 | 7.33 µM (inactive) | – | 7.69 µM (inactive) | 23.1 µM (inactive) | – | – | 74.3 µM (inactive) | 7.64 µM (inactive) | 12.3 µM (inactive) | 75 µM (inactive) | 87.3 µM (inactive) | 23.7 µM (inactive) | 33.2 µM (inactive) |
| CCNC(=S)Nc1c(C#N)c2n(c1C(=O)OCC)CCCCC2 | – | > 100 µM (inactive) | > 100 µM (inactive) | > 100 µM (inactive) | > 100 µM (inactive) | > 100 µM (inactive) | > 100 | > 100 µM (inactive) | > 100 µM (inactive) | – | > 100 µM (inactive) | – | > 100 µM (inactive) | – | > 100 µM (inactive) | > 100 µM (inactive) | – | > 100 µM (inactive) | > 100 µM (inactive) | > 100 µM (inactive) |
| Clc1ccc(Nc2nnc(CNc3ccc(-c4nnc(Nc5ccc(Cl)cc5)o4)cc3)o2)cc1 | 13.6 µM (inactive) | 17.1 µM (inactive) | 19.8 µM (inactive) | 12.7 µM (inactive) | 5.14 µM (inactive) | 12.2 µM (inactive) | 14.9 | 0.504 µM (active) | 12.9 µM (inactive) | 14.3 µM (inactive) | 20.9 µM (inactive) | 16 µM (inactive) | 17.4 µM (inactive) | 19.6 µM (inactive) | 11.8 µM (inactive) | 15.9 µM (inactive) | 16 µM (inactive) | 14.5 µM (inactive) | 2.63 µM (inactive) | – |
| CCOC(=O)c1nc2ccccc2nc1Nc1ccc(OC)c(OC)c1 | > 100 µM (inactive) | > 100 µM (inactive) | > 100 µM (inactive) | > 100 µM (inactive) | > 100 µM (inactive) | > 100 µM (inactive) | > 100 | > 100 µM (inactive) | > 100 µM (inactive) | > 100 µM (inactive) | – | > 100 µM (inactive) | > 100 µM (inactive) | > 100 µM (inactive) | – | 63.7 µM (inactive) | > 100 µM (inactive) | > 100 µM (inactive) | > 100 µM (inactive) | > 100 µM (inactive) |
| O=C(c1ccccc1)C1C(C(=O)c2ccccc2)N1Cc1ccccc1 (stereo not drawn) | 24.2 µM (inactive) | 41.9 µM (inactive) | 24.3 µM (inactive) | 24.4 µM (inactive) | 48.3 µM (inactive) | – | 57.3 | 27.9 µM (inactive) | 21.8 µM (inactive) | 13.5 µM (inactive) | 32.6 µM (inactive) | 24.5 µM (inactive) | 39.9 µM (inactive) | > 100 µM (inactive) | 23.4 µM (inactive) | 20 µM (inactive) | 21.4 µM (inactive) | 36.8 µM (inactive) | – | – |
| CSc1nc(-c2cc3c(c(SC)n2)CCC3)cc2c1CCC2 | > 100 µM (inactive) | > 100 µM (inactive) | > 100 µM (inactive) | > 100 µM (inactive) | > 100 µM (inactive) | > 100 µM (inactive) | > 100 | > 100 µM (inactive) | > 100 µM (inactive) | > 100 µM (inactive) | > 100 µM (inactive) | > 100 µM (inactive) | > 100 µM (inactive) | > 100 µM (inactive) | > 100 µM (inactive) | > 100 µM (inactive) | > 100 µM (inactive) | > 100 µM (inactive) | > 100 µM (inactive) | – |
| CC(=O)OC1CN2CCC1CC2 (stereo not drawn) [ACECLIDINE] | > 100 µM (inactive) | > 100 µM (inactive) | > 100 µM (inactive) | > 100 µM (inactive) | > 100 µM (inactive) | > 100 µM (inactive) | > 100 | > 100 µM (inactive) | > 100 µM (inactive) | – | > 100 µM (inactive) | > 100 µM (inactive) | > 100 µM (inactive) | > 100 µM (inactive) | > 100 µM (inactive) | > 100 µM (inactive) | > 100 µM (inactive) | > 100 µM (inactive) | > 100 µM (inactive) | > 100 µM (inactive) |
| CCOC(=O)C(C)(C)Oc1ccc(Cl)cc1 [CLOFIBRATE] | 432 µM (inactive) | > 1000 µM (inactive) | 202 µM (inactive) | 935 µM (inactive) | 505 µM (inactive) | 214 µM (inactive) | 435 | > 1000 µM (inactive) | 601 µM (inactive) | 566 µM (inactive) | 188 µM (inactive) | 435 µM (inactive) | 322 µM (inactive) | 446 µM (inactive) | 359 µM (inactive) | 147 µM (inactive) | 320 µM (inactive) | 726 µM (inactive) | > 1000 µM (inactive) | – |
